Measured values from US20120232003A1, “COMPOSITIONS AND METHODS FOR DIABETES TREATMENT” (priority 2009, published 2012).

What was measured:
male C57BL6 DIO mice = experiment: Oral glucose tolerance test, blood glucose levels (Example 2); type: in vivo
Procedure: In this experiment, male C57BL6 DIO mice (10-11 weeks old, n=52) were used and maintained on a high fat diet. A total of 49 animals were used in this study. […] The mice were randomized to achieve similar body weight and glucose for each group before dosing. All animals were subjected to fasting at the start of the dark period (Groups 1-7). Food was removed, and bedding materials were replaced with fresh bedding to eliminate any residual food. Animals remained under fast until the 120 minute time point was taken. Water was made available ad libitum throughout the study. A 30 mg/mL stock solution of melatonin (30 mg melatonin in 1 ml of pure sesame oil) was made. From this stock solution, 10 μL of stock was taken and diluted with 990 μL of sesame oil, resulting in a solution concentration of 300 μg/ml. This was then diluted 1:18, resulting in a final concentration of 16.6-16.7 μg/mL. The doses of melatonin were adjusted based on the weight of the mouse. […] Blood glucose levels were measured by standard methods. […] Blood glucose level of all animals in Groups 1-7 were measured at time 0 (right before the glucose dosing), 15, 30, 60 and 120 minutes post glucose dosing (5 time points). Body weight was recorded twice per week prior to the study, and before the blood glucose level measurements. […]

male lean C57BL6 mice [1] = experiment: Oral glucose tolerance test, blood glucose levels (Example 1); type: in vivo; conditions: 5 μg/mouse, oral glucose 3 g/kg
Procedure: (§1) In this experiment, male lean C57BL6 mice were used. […] The mice were randomized to achieve similar body weight and glucose for each group before dosing. All animals were subjected to fasting at the start of the dark period (Group 1-4). Food was removed, and bedding materials were replaced with fresh bedding to eliminate any residual food. Animals remained under fast until the 120 minute time point was taken. Water was made available ad libitum throughout the study. A 30 mg/mL stock solution of melatonin (30 mg melatonin in 1 ml of pure sesame oil) was made. From this stock solution, 10 μL of stock was taken and diluted with 990 μL of sesame oil, resulting in a solution concentration of 300 μg/ml. This was then diluted 1:18, resulting in a final concentration of 16.6-16.7 μg/mL. Mice received 0.3 ml by subcutaneous injection (5 μg/mouse). […] Insulin and blood glucose levels were measured by standard methods. The oral glucose tolerance test was carried out as follows using a glucose oxidase reaction measured by a Precision glucometer. […] Blood glucose level of all animals in Group 1-4 were measured at time 0 (right before the glucose dosing), 5, 10, 20, 30, 60 and 120 minutes post glucose dosing (7 time points). Insulin levels were also measured at 0, 30, 60, and 120 minutes from separate collections of tail vein blood obtained post glucose dosing by Crystal Chemistry ELISA.

male lean C57BL6 mice [2] = experiment: Insulin levels post glucose dosing by ELISA (Example 1); type: in vivo; conditions: 5 μg/mouse, oral glucose 3 g/kg
Procedure: as §1

[3] = system: mouse C2C12 skeletal muscle cells; conditions: cited from earlier work
[4] = system: rat insulinoma cells (INS1); conditions: cited from earlier work
rat model of diabetes = conditions: cited from earlier work
[5] = cells exposed to melatonin and GLP-1 at the same time
[6] = overnight pretreatment with melatonin

Question: With N[C@@H](CC(=O)N1CCn2c(nnc2C(F)(F)F)C1)Cc1cc(F)c(F)cc1F [Sitagliptin] as the compound, how does the blood glucose levels (male C57BL6 DIO mice; sitagliptin 10 mg/kg alone, PO -1 h, FIG. 2B) read?
Answer: Its blood glucose levels is “decrease”.

Question: For COc1ccc2[nH]cc(CCNC(C)=O)c2c1 [melatonin, N-acetyl-5-methoxyindole-3-ethaneamine], which “glucose levels compared to vehicle alone” value (male lean C57BL6 mice [1]; 1-hour melatonin dose, SC -1 h, FIG. 1C) is on record?
Answer: The value was “not appreciably different”.

Question: What about the “blood glucose levels compared to vehicle alone” value (male lean C57BL6 mice [1]; 12-hour sustained melatonin dose, SC -12 h, FIG. 1A) of the same compound?
Answer: The value was “significantly decreased”.

Question: And the insulin levels (male lean C57BL6 mice [2]; 1-hour melatonin dose, SC -1 h, FIG. 1D)?
Answer: The insulin levels was “lower”.

Question: And the “insulin levels compared to vehicle alone” value (male lean C57BL6 mice [2]; 12-hour melatonin dose, SC -12 h, FIG. 1B)?
Answer: Its value is “much higher”.

Question: And the “effect on the anti-diabetic action of sitagliptin” value (male C57BL6 DIO mice; 12-hour melatonin dose SC with sitagliptin 10 mg/kg PO)?
Answer: The value was “does not inhibit”.

Question: What about the glucose transport [3] of the same compound?
Answer: Its glucose transport is “stimulates”.

Question: And the “GLP-1 induced gene expression” value [4, 5]?
Answer: Its value is “antagonized”.

Question: And the “GLP-1 induced insulin secretion” value [4, 5]?
Answer: The value was “antagonized”.

Question: And the “cAMP-response element-mediated gene expression in response to GLP-1 or forskolin” value [4, 6]?
Answer: Its value is “marked increase”.

Question: And the “insulin secretion in response to GLP-1 or forskolin” value [4, 6]?
Answer: The value was “marked increase”.

Question: And the “insulin-promoter-driven luciferase gene expression in response to GLP-1 or forskolin” value [4, 6]?
Answer: The value was “marked increase”.

Question: And the blood glucose levels (rat model of diabetes)?
Answer: Its blood glucose levels is “without affecting”.

Question: What about the “protection against hyperglycemia-induced oxidative damage” value (rat model of diabetes) of the same compound?
Answer: Its value is “limited protection”.
